Test results taken from patent US20210070747A1, “2(1H)-QUINOLINONE DERIVATIVE” (priority 2017, published 2021).
≈ marks a conversion by molar mass, not a printed value. Where two headings read alike, the source gives them in different places.

Key:
[1] = biological target: T1, E. coli DNA gyrase (Escherichia coli, UniProt P0AES6); experiment: Test for evaluating the activity of inhibiting E. coli DNA gyrase enzyme (Method 2, supercoiling, recombinant gyrA/gyrB complex); assay type: biochemical
T1 construct: made in house; host or cells: E. coli BL21 (DE3)
Experimental: The enzymatic activity of E. coli DNA gyrase was measured by a method comprising reacting DNA gyrase and its substrate, relaxed pBR322 (Inspiralis), in the presence of ATP and detecting the post-reaction supercoiled pBR322/relaxed pBR322 ratio with H19.
Specifically, to 1 ng/μL of relaxed pBR322, E. coli DNA gyrase enzyme (the gyrA or gyrB gene was incorporated into the pET15b plasmid and after expressing them in E. coli BL21 (DE3), purification was performed using a Ni-NTA column to form a complex at room temperature) was added at a final concentration of 0.135 nmol/mL and the mixture was incubated for 60 minutes at room temperature. This reaction was carried out in 20 mmol/L tris-HCl buffered solution (pH 8.0) comprising 0.5 mmol/L ATP, 0.005% bridge 35, 35 mmol/L ammonium acetate, 8 mmol/L magnesium chloride, 4.6% glycerol, and 1 mmol/L dithiothreitol. To the reaction mixture, H19 was added to bring the reaction to an end; thereafter, the supercoiled pBR322/relaxed pBR322 ratio was detected at excitation wavelength/emission wavelength=485 nm/535 nm. An inhibition curve was obtained by allowing the analyte compound to be present at varying concentrations during the reaction described above.

[2] = tested on: E. Coli ATCC 25922; experiment: Test for evaluating antibacterial activity (E. coli), broth microdilution MIC; assay type: cell-based; details: Escherichia coli, ATCC25922; 35° C., 18 hours, cation-adjusted Mueller-Hinton medium
Experimental: Minimum inhibitory concentration (MIC) was measured using the broth microdilution method described below in accordance with a modification of the standard method specified by CLSI (Clinical & Laboratory Standards Institute).
(§1) Bacterial cells under test were cultured overnight on a heart infusion agar medium, scraped off and suspended at a concentration equivalent to McFarland 0.5 turbidity; the suspension thus obtained was diluted 10 folds to give a liquid inoculum. The inoculum (0.005 mL) was inoculated on a cation-adjusted Mueller-Hinton medium containing the analyte compound and cultured at 35° C. for 18 hours. A minimum drug concentration at which no bacterial growth was macroscopically visible was designated MIC.

[3] = tested on: N. gonorrhoeae ATCC 49226; experiment: Test for evaluating antibacterial activity (N. gonorrhoeae), broth microdilution MIC; assay type: cell-based; details: Neisseria gonorrhoeae, ATCC49226; 35° C., 24 hours, gonococcal broth
Experimental: Minimum inhibitory concentration (MIC) was measured using the broth microdilution method described below in accordance with a modification of the method of Geers et al. (Antimicrob. Agents. Chemother. (1989), 33, 233-234).
After sterilization, BD. Difco supplement C was added to give a final concentration of 1%, whereby a gonococcal broth was prepared.
as §1, with “chocolate II” for “heart infusion”, “5” for “10”, “gonococcal broth” for “cation-adjusted Mueller-Hinton medium”, “24” for “18”

[4] = Method 2, read-out: E. Coli Gyrase supercoiling IC50

SMILES | IC50 [1, 4] [nM] | MIC [2] [µg/mL] | MIC [3] [µg/mL] | IC50 [1] [nM]
CNc1cccc2cc(C(=O)Nc3cccc(C(=O)O)c3)c(=O)[nH]c12 [Example 1, 3-[[8-(Methylamino)-2-oxo-1,2-dihydroquinoline-3-carbonyl]amino]benzoic Acid] | 52.3 | > 64 | > 4 | –
CNc1cccc2cc(C(=O)Nc3cccc(CC(=O)O)c3)c(=O)[nH]c12 [Example 4, (3-{[8-(methylamino)-2-oxo-1,2-dihydroquinoline-3-carboyl]amino}phenyl)acetic acid] | 164 | > 64 | > 4 | –
CNc1cccc2cc(C(=O)NCc3ccc(C(=O)O)cc3)c(=O)[nH]c12 [Example 6, 4-({[8-(methylamino)-2-oxo-1,2-dihydroquinoline-3-carbonyl]amino}methyl)benzoic acid] | – | > 64 | 4 (≈ 11.4 µM) | –
CNc1cc(F)cc2cc(C(=O)NCCc3ccc(O)c(OC)c3)c(=O)[nH]c12 [Example 81, 6-fluoro-N-[2-(4-hydroxy-3-methoxyphenyl)ethyl]-8-(methylamino)-2-oxo-1,2-dihydroquinoline-3-carboxamide] | 110 | – | > 1 | –
CNc1cc(F)cc2cc(C(=O)Nc3ccc(C(=O)O)cc3CCN(C)C)c(=O)[nH]c12 [Example 115, 3-[2-(dimethylamino)ethyl]-4-{[6-fluoro-8-(methylamino)-2-oxo-1,2-dihydroquinoline-3-carbonyl]amino} benzoic acid] | 4.57 | > 4 | – | –
CNc1cc(F)cc2cc(C(=O)Nc3ccc(C(=O)O)cc3/C=C/CCO)c(=O)[nH]c12 [Example 119, 4-[[6-Fluoro-8-(methylamino)-2-oxo-1,2-dihydroquinoline-3-carbonyl]amino]-3-[(1E)-4-hydroxybut-1-en-1-yl]benzoic Acid] | 20.6 | > 64 | – | –
CNc1cc(F)cc2cc(C(=O)Nc3ccc(C(=O)O)cc3CCCCO)c(=O)[nH]c12 [Example 120, 4-[[6-Fluoro-8-(methylamino)-2-oxo-1,2-dihydroquinoline-3-carbonyl]amino]-3-(4-hydroxybutyl)benzoic Acid] | 32.5 | > 32 | – | –
CNc1cc(F)cc2cc(C(=O)Nc3ccc(C(=O)O)cc3/C=C/CCN(C)C)c(=O)[nH]c12.Cl [Example 125, 3-[(1E)-4-(dimethylamino)but-1-en-1-yl]-4-{[6-fluoro-8-(methylamino)-2-oxo-1,2-dihydroquinoline-3-carbonyl]amino}benzoic acid-hydrochloride] | – | > 32 | – | 24.6
CNc1cc(F)cc2cc(C(=O)Nc3ccc(C(=O)O)cc3CCCCN(C)C)c(=O)[nH]c12 [Example 126, 3-[4-(dimethylamino)butyl]-4-{[6-fluoro-8-(methylamino)-2-oxo-1,2-dihydroquinoline-3-carbonyl]amino}benzoic acid] | 22 | > 8 | – | –
CCOC(=O)c1ccc(NC(=O)c2c(O)c3cc(F)cc(NC)c3[nH]c2=O)cc1 [Example 127, Ethyl 4-[[6-fluoro-4-hydroxy-8-(methylamino)-2-oxo-1,2-dihydroquinoline-3-carbonyl]amino]benzoate] | 214 | > 16 | – | –
CNc1cc(F)cc2cc(CNc3ccc(C(=O)O)cc3CN(C)C3CCCCC3)c(=O)[nH]c12 [Example 128, 3-[[Cyclohexyl(methyl)amino]methyl]-4-([[6-fluoro-8-(methylamino)-2-oxo-1,2-dihydroquinolin-3-yl]methyl]amino)benzoic Acid] | 340 | > 16 | – | –
CNCCc1c(C(=O)Nc2ccc(C(=O)O)cc2)c(=O)[nH]c2c(NC)cc(F)cc12.O=C(O)C(F)(F)F [Example 130, 4-([6-Fluoro-8-(methylamino)-4-[2-(methylamino)ethyl]-2-oxo-1,2-dihydroquinoline-3-carbonyl]amino)benzoic acid-trifluoroacetate] | – | > 8 | – | 109
CNc1cc(F)cc2c(NCCN)c(C(=O)Nc3ccc(C(=O)O)cc3)c(=O)[nH]c12.O=CO [Example 131, 4-([4-[(2-Aminoethyl)amino]-6-fluoro-8-(methylamino)-2-oxo-1,2-dihydroquinoline-3-carbonyl]amino)benzoic Acid-Formate] | – | > 16 | – | 0.94
CNCCCc1c(C(=O)Nc2ccc(C(=O)O)cc2)c(=O)[nH]c2c(NC)cc(F)cc12.O=C(O)C(F)(F)F [Example 134, 4-([6-Fluoro-8-(methylamino)-4-[3-(methylamino)propyl]-2-oxo-1,2-dihydroquinoline-3-carbonyl]amino)benzoic Acid-Trifluoroacetate] | – | > 32 | – | 131
CNc1cc(F)cc2c(NC[C@H]3C[C@H](N)C3)c(C(=O)Nc3ccc(C(=O)O)cc3)c(=O)[nH]c12.O=CO [Example 136, 4-{[4-{[(trans-3-aminocyclobutyl)methyl]amino}-6-fluoro-8-(methylamino)-2-oxo-1,2-dihydroquinoline-3-carbonyl]amino}benzoic acid-formate] | – | > 32 | – | 1.28
CNc1cc(F)cc2c(NCC3CCNCC3)c(C(=O)Nc3ccc(C(=O)O)cc3)c(=O)[nH]c12.O=CO [Example 137, 4-{[6-fluoro-8-(methylamino)-2-oxo-4-{[(piperidine-4-yl)methyl]amino}-1,2-dihydroquinoline-3-carbonyl]amino}benzoic acid-formate] | – | > 32 | – | 1.31
CNc1cc(F)cc2c(NC3CC34CCNCC4)c(C(=O)Nc3ccc(C(=O)O)cc3)c(=O)[nH]c12.O=CO (centres unmarked) [Example 139, 4-({4-[(6-azaspiro[2.5]octane-1-yl)amino]-6-fluoro-8-(methylamino)-2-oxo-1,2-dihydroquinoline-3-carbonyl}amino)benzoic acid-formate] | – | > 64 | – | 6.94
CNc1cc(F)cc2c(NCC3(N)CCC3)c(C(=O)Nc3ccc(C(=O)O)cc3)c(=O)[nH]c12.O=CO [Example 140, 4-{[4-{[(1-aminocyclobutyl)methyl]amino}-6-fluoro-8-(methylamino)-2-oxo-1,2-dihydroquinoline-3-carbonyl]amino}benzoic acid-formate] | – | > 32 | – | 2.15
CNCCNc1c(C(=O)Nc2ccc(C(=O)O)cc2)c(=O)[nH]c2c(NC)cc(F)cc12.O=CO [Example 141, 4-{[6-fluoro-8-(methylamino)-4-{[2-(methylamino)ethyl]amino}-2-oxo-1,2-dihydroquinoline-3-carobnyl]amino}benzoic acid-formate] | – | > 16 | – | 2.09
CNc1cc(F)cc2c(N[C@H]3C[C@@H](N)C3)c(C(=O)Nc3ccc(C(=O)O)cc3)c(=O)[nH]c12 [Example 142, 4-({4-[(cis-3-aminocyclobutyl)amino]-6-fluoro-8-(methylamino)-2-oxo-1,2-dihydroquinoline-carbonyl}amino) 3-benzoic acid-formate] | 2.66 | > 32 | – | –
CNc1cc(F)cc2c(NCCN3CCOCC3)c(C(=O)Nc3ccc(C(=O)O)cc3)c(=O)[nH]c12.O=CO [Example 143, 4-{[6-fluoro-8-(methylamino)-4-{[2-(morpholine-4-yl)ethyl]amino}-2-oxo-1,2-dihydroquinoline-3-carbonyl]amino}benzoic acid-formate] | – | > 64 | – | 14.6
CNc1cccc2cc(C(=O)Nc3ccc(CC(=O)O)cc3)c(=O)[nH]c12 [Example 166, (4-{[8-(methylamino)-2-oxo-1,2-dihydroquinoline-3-carbonyl]amino}phenyl)acetic acid] | 18.1 | > 16 | – | –
CNc1cccc2cc(C(=O)NCCc3ccc(C(=O)O)cc3)c(=O)[nH]c12 [Example 167, 4-(2-{[8-(methylamino)-2-oxo-1,2-dihydroquinoline-3-carbonyl]amino}ethyl)benzoic acid] | 134 | > 32 | – | –
CNc1cccc2cc(C(=O)NCc3cccc(C(=O)O)c3)c(=O)[nH]c12 [Example 168, 3-({[8-(methylamino)-2-oxo-1,2-dihydroquinoline-3-carbonyl]amino}methyl)benzoic acid] | 1670 | > 32 | – | –
